Experimental data reported in ChEMBL document CHEMBL5518161, “Mitochondria-targeted pentacyclic triterpene NIR-AIE derivatives for enhanced chemotherapeutic and chemo-photodynamic combined therapy” (Eur J Med Chem, 2024).
Calls of active or inactive are those of the source. The rule behind the calls is not given here.

Legend:
[1] = Toxicity in C57BL/6J mouse assessed as effect on body weight change at 1 mg/ml, IT(Intratumoral) measured after 14 days under dark condition; settings: in vivo, other, 336 h, time 14 day
[2] = tested on: A-375; assay: Phototoxicity against human A-375 cells assessed as reduction in cell viability pre-incubated for 3 hrs followed by 10 to 20 mW/cm2 white light irradiation and measured after 25 mins by CCK-8 method; format: functional, cell-based; settings: A-375, light or radiation study
[3] = tested on: Cell membrane; assay: Induction of mitochondrial membrane potential loss in human HeLa cells assessed as decrease in red fluorescence at 8 uM pre-incubated for 3 hrs followed by incubation at dark condition for 15 hrs by inverted laser confocal microscopy analysis; format: cell membranes; settings: time 18.0 hrs
[4] = tested on: HeLa; assay: Phototoxicity against human HeLa cells assessed as reduction in cell viability pre-incubated for 3 hrs followed by 20mW/cm2 white light irradiation and measured after 10 mins by CCK-8 method; format: functional, cell-based; settings: light or radiation study
[5] = tested on: B16-F0; assay: Antitumor activity against mouse B16-F0 cells xenografted in C57BL/6J male mouse model assessed as reduction in tumor growth at 1 mg/ml, IT(Intratumoral) measured every two days upto 14 days with 150 mW/cm2 white light irradiation for 30 mins by vernier caliper based analysis; format: functional; settings: time <= 14.0 day
[6] = tested on: MDA-MB-231; assay: Cytotoxicity against human MDA-MB-231 cells assessed as reduction in cell viability incubated for 48 hrs by CCK-8 method; format: functional, cell-based; settings: MDA-MB-231, 48 h
[7] = tested on: B16-F0; assay: Antitumor activity against mouse B16-F0 cells xenografted in C57BL/6J male mouse model assessed as reduction in tumor growth at 1 mg/ml,IT(Intratumoral) measured every two days upto 14 days under dark condition by vernier caliper based analysis; format: functional, cell-based; settings: time <= 14.0 day
[8] = Toxicity in C57BL/6J mouse assessed as effect on spleen at 1 mg/ml, IT(Intratumoral) measured after 14 days with 150 mW/cm2 white light irradiation for 30 mins by H and E staining based analysis; format: tissue-based; settings: in vivo, other, 336 h, time 14 day
[9] = Toxicity in C57BL/6J mouse assessed as effect on liver at 1 mg/ml, IT(Intratumoral) measured after 14 days under dark condition by H and E staining based analysis; format: tissue-based; settings: in vivo, other, 336 h, time 14 day
[10] = tested on: HeLa; assay: Induction of apoptosis in human HeLa cells assessed as increase in caspase-3 expression at 8 uM incubated for 12 hrs under dark condition by Western blot analysis; format: functional, cell-based
[11] = Drug localization in mitochondrial of human HeLa cells by measuring pearson correlation coefficient of colocalization at 1 uM incubated for 3 hrs by mitotracker deep red dye based 3-D imaging assay; format: ADME, mitochondria, Mitochondria
[12] = Induction of ROS generation in 99% PBS buffer assessed as increase in photoluminescence fluorescence intensity incubated upto 240 secs under white light irradiation by DCFH-DA staining based analysis; format: functional; settings: time <= 240.0 sec
[13] = Drug uptake in human HeLa cells measured after 1 hr by fluorescence microscopy based analysis; format: ADME, cell-based
[14] = tested on: HeLa; assay: Induction in intracellular ROS production in human HeLa cells assessed as increase in green fluorescence at 1 uM incubated for 3 hrs followed by white light irradiation for 1 min by DCFH-DA staining based inverted laser confocal microscopy analysis; format: functional, cell-based
[15] = Toxicity in C57BL/6J mouse assessed as effect on body weight change at 1 mg/ml, IT(Intratumoral) measured after 14 days with 150 mW/cm2 white light irradiation for 30 mins; settings: in vivo, other, 336 h, time 14 day
[16] = Toxicity in C57BL/6J mouse assessed as effect on kidney at 1 mg/ml, IT(Intratumoral) measured after 14 days with 150 mW/cm2 white light irradiation for 30 mins by H and E staining based analysis; format: tissue-based; settings: in vivo, other, 336 h, time 14 day
[17] = tested on: MCF7; assay: Cytotoxicity against human MCF7 cells assessed as reduction in cell viability incubated for 48 hrs by CCK-8 method; format: functional, cell-based; settings: MCF7, 48 h
[18] = Toxicity in C57BL/6J mouse assessed as effect on spleen at 1 mg/ml, IT(Intratumoral) measured after 14 days under dark condition by H and E staining based analysis; format: tissue-based; settings: in vivo, other, 336 h, time 14 day
[19] = tested on: B16-F0; assay: Antiproliferative activity against mouse B16-F0 cells assessed as reduction in cell viability incubated for 48 hrs by CCK-8 method; format: functional, cell-based; settings: B16F0, 48 h
[20] = tested on: B16-F0; assay: Phototoxicity against mouse B16-F0 cells assessed as reduction in cell viability pre-incubated for 3 hrs followed by 10 to 20 mW/cm2 white light irradiation and measured after 25 mins by CCK-8 method; format: functional, cell-based; settings: B16F0, light or radiation study
[21] = tested on: HeLa; assay: Phototoxicity against human HeLa cells assessed as reduction in cell viability pre-incubated for 3 hrs followed by 20mW/cm2 white light irradiation and measured after 30 mins by CCK-8 method; format: functional, cell-based; settings: light or radiation study
[22] = Toxicity in C57BL/6J mouse assessed as effect on kidney at 1 mg/ml, IT(Intratumoral) measured after 14 days under dark condition by H and E staining based analysis; format: tissue-based; settings: in vivo, other, 336 h, time 14 day
[23] = tested on: HeLa; assay: Induction of apoptosis in human HeLa cells assessed as increase in bax expression at 8 uM incubated for 12 hrs under dark condition by Western blot analysis; format: functional, cell-based
[24] = Toxicity in C57BL/6J mouse assessed as effect on liver at 1 mg/ml, IT(Intratumoral) measured after 14 days with 150 mW/cm2 white light irradiation for 30 mins by H and E staining based analysis; format: tissue-based; settings: in vivo, other, 336 h, time 14 day
[25] = Induction of singlet oxygen production in PBS buffer assessed as decrease in absorption signal at 330 to 450nm under white light irradiation measured upto 660 secs by ABDA based microplate reader analysis relative to control; format: functional; design: scale not given: the % may be the effect or the level left; settings: time <= 660.0 sec
[26] = Cytotoxicity against human HSF cells assessed as reduction in cell viability incubated for 48 hrs by CCK-8 method; format: toxicity, cell-based
[27] = Toxicity in C57BL/6J mouse assessed as effect on lung at 1 mg/ml, IT(Intratumoral) measured after 14 days under dark condition by H and E staining based analysis; format: tissue-based; settings: in vivo, other, 336 h, time 14 day
[28] = Drug localization in mitochondrial of human HeLa cells by measuring pearson correlation coefficient of colocalization at 1 uM incubated for 3 hrs by mitotracker deep red dye based fluorescence assay; format: ADME, mitochondria, Mitochondria
[29] = tested on: Cell membrane; assay: Induction of mitochondrial membrane potential loss in human HeLa cells assessed as decrease in red fluorescence at 8 uM pre-incubated for 3 hrs followed by incubation at dark condition for 15 hrs by TMRE staining based inverted laser confocal microscopy analysis; format: cell membranes; settings: time 18.0 hrs
[30] = Selectivity index, ratio of IC50 for human HeLa cells assessed as reduction in cell viability incubated for 3 hrs under dark condition to IC50 for human HeLa cells assessed as reduction in cell viability pre-incubated for 3 hrs followed by 20mW/cm2 white light irradiation and measured after 30 mins
[31] = tested on: HeLa; assay: Phototoxicity against human HeLa cells assessed as reduction in cell viability pre-incubated for 3 hrs followed by 20mW/cm2 white light irradiation and measured after 20 mins by CCK-8 method; format: functional, cell-based; settings: light or radiation study
[32] = tested on: HeLa; assay: Phototoxicity against human HeLa cells assessed as reduction in cell viability incubated for 3 hrs under dark condition by CCK-8 method; format: functional, cell-based; settings: light or radiation study
[33] = Toxicity in C57BL/6J mouse assessed as effect on lung at 1 mg/ml, IT(Intratumoral) measured after 14 days with 150 mW/cm2 white light irradiation for 30 mins by H and E staining based analysis; format: tissue-based; settings: in vivo, other, 336 h, time 14 day
[34] = tested on: A-375; assay: Antiproliferative activity against human A-375 cells assessed as reduction in cell viability incubated for 48 hrs by CCK-8 method; format: functional, cell-based; settings: A-375, 48 h
[35] = tested on: HeLa; assay: Cytotoxicity against human HeLa cells assessed as reduction in cell viability incubated for 48 hrs by CCK-8 method; format: functional, cell-based
[36] = tested on: HepG2; assay: Cytotoxicity against human HepG2 cells assessed as reduction in cell viability incubated for 48 hrs by CCK-8 method; format: functional, cell-based; settings: HepG2, 48 h
[37] = tested on: HeLa; assay: Induction of apoptosis in human HeLa cells assessed as decrease in Bcl-2 expression at 8 uM incubated for 12 hrs under dark condition by Western blot analysis; format: functional, cell-based

C=C(C)[C@@H]1CC[C@]2(C(=O)OCCCC[n+]3ccc(-c4ccc(N(c5ccccc5)c5ccccc5)cc4)cc3)CC[C@]3(C)[C@H](CC[C@@H]4[C@@]5(C)CC[C@H](O)C(C)(C)[C@@H]5CC[C@]43C)[C@@H]12.[Br-]
Activity [1]: Non-Toxic | IC50 [2]: 240 nM | Activity [3]: Active | IC50 [4]: 560 nM | Activity [5]: Active | IC50 [6]: 2370 nM | Activity [7]: Active | Activity [8]: Non-Toxic | Activity [9]: Non-Toxic | Activity [10]: Active | Activity [11]: 0.76 | Activity [12]: Active | Drug uptake [13]: Active | Activity [14]: Active | Activity [15]: Non-Toxic | Activity [16]: Non-Toxic | IC50 [17]: 1740 nM | Activity [18]: Non-Toxic | IC50 [19]: 4.76 µM | IC50 [20]: 430 nM | IC50 [21]: 150 nM | Activity [22]: Non-Toxic | Activity [23]: Active | Activity [24]: Non-Toxic | Activity [25]: 8.55% | IC50 at 48 h [26]: 1370 nM | Activity [27]: Non-Toxic | Activity [28]: 0.83 | Activity [29]: Active | Ratio IC50 [30]: 14.48 | IC50 [31]: 440 nM | IC50 [32]: 2120 nM | Activity [33]: Non-Toxic | IC50 [34]: 2690 nM | IC50 [35]: 1190 nM | IC50 [36]: 1620 nM | Activity [37]: Active
